The record followed here is patent publication US12673052B2, “Combinations for the treatment of cancer” (Exelixis, Inc., priority 2020, dated 2026).

The nature of data set [1]: Liver microsomal stability assay. The note with it: liver microsomes. The class given is in vitro ADME, mouse. On the procedure:
(§1) In the liver microsomal stability assay, CLint was 0.601 mL/min/g liver in mouse, 0.563 mL/min/g liver in rat, 0.315 mL/min/g liver in dog, 0.734 mL/min/g liver in monkey, and 0.639 mL/min/g liver in human. In the hepatocyte stability assay, Compound 1 CLint was 0.373 mL/min/g liver in mouse, 0.285 mL/min/g liver in rat, 1.08 mL/min/g liver in dog, 0.533 mL/min/g liver in monkey, and 0.317 mL/min/g liver in human.
On the technique in general: Liver microsomes are a subcellular fraction often used to study metabolism.

A further data set relates to CYP3A4. As to the kind of experiment: Cytochrome P450 induction (mRNA levels) in fresh primary human hepatocytes. The class given is in vitro ADME.
For the next data set, the system named is CYP2C8. Described as above. The class given is in vitro ADME.
For a further data set, the system named is CYP1A2. The description is as above. The class given is in vitro ADME.
The next data set addresses MET (Homo sapiens, UniProt P08581). The data set is described as follows: Kinase catalytic activity assay, radioactive assay platform. As to conditions: 10 μM ATP. Format: biochemical. The protocol:
(§2) Compound 1 inhibitory activity was evaluated in multiple kinase catalytic activity assays using a radioactive assay platform. […] All in vitro biochemical assays were performed at 10 μM ATP concentrations.

In the next data set the target is VEGFR2 (Homo sapiens, UniProt P35968). Described as above. Format: biochemical. The note with it: 10 μM ATP. On the procedure:
as §2

Another data set concerns the target MER (Homo sapiens, UniProt Q12866). The description is as above. The note with it: 10 μM ATP. Format: biochemical. The protocol:
as §2

Another data set has as its target AXL (Homo sapiens, UniProt P30530). The description is as above. As to conditions: 10 μM ATP. Format: biochemical. The protocol:
as §2

Data set [2] can be described thus: In vitro plasma protein binding. Format: in vitro ADME, human. On the procedure:
Plasma PK of Compound 1 was characterized in rats and beagle dogs. Toxicokinetic (TK) evaluations of oral Compound 1 were evaluated in repeat-dose studies in rats and dogs. Plasma protein binding was determined in mouse, rat, dog, monkey, and human plasma in vitro. Biotransformation and metabolite profiling of Compound 1 were investigated in vitro using mouse, rat, dog, monkey, and human liver microsomal fractions and hepatocytes and in vivo in rats and dogs. P-glycoprotein (P-gp) and breast cancer resistance protein (BCRP) transporter interaction studies, in vitro experiments evaluating cytochrome P450 (CYP) induction and inhibition by Compound 1, and CYP and glucuronosyltransferase (UGT) substrate specificity studies of Compound 1 were also performed.
Compound 1 (10 μM) was 97.2 and 97.5% protein bound in monkey and human plasma, respectively.

The subject of the next data set is advanced solid tumors. As to the kind of experiment: Phase 1 first-in-human Study Compound 1-001 (NCT03845166): safety (DLT, adverse events) and preliminary clinical activity. Format: in vivo. From the text:
The maximum tolerated dose (MTD) and/or recommended dose (RD) of Compound 1 single-agent therapy and ICI combination therapy will be determined in a Dose-Escalation Stage. The preliminary efficacy of Compound 1 as single agent and as ICI combination therapy will be determined in a Cohort-Expansion Stage with tumor-specific expansion cohorts. As of 14 Dec. 2020, dose escalation of Compound 1 as single agent and in combination therapy with atezolizumab was ongoing: 19 subjects were enrolled in single agent cohorts across six dose levels (PIB: 10, 20 mg; Tablet: 20, 40, 80, 140 mg); three subjects were enrolled in combination therapy with atezolizumab at one dose level (Compound 1 40 mg po qd plus atezolizumab 1200 mg IV q3w). As of 14 Dec. […] The majority of reported adverse events (AEs) were of low-grade severity (Grade 1-2) with five subjects having experienced treatment-related Grade 3 events.
In the Compound 1 single-agent dose-escalation cohorts, study drug will be administered qd for the first 28 days, which comprises the Dose-Limiting Toxicity (DLT) Evaluation Period. At the end of the 28-day DLT period, the Cohort Review Committee will review all available safety and PK data for cohorts containing at least 3 subjects and dose escalation to the next cohort may proceed if 0 out of 3 subjects or […] subjects experience(s) a DLT (as defined below). Dose escalation to the next cohort will not exceed a doubling of the Compound 1 dose; however, the Cohort Review Committee may decide to institute a less-than-doubling escalation between cohorts based on evaluation of safety and PK results from the current and previous cohorts.
Dose-limiting toxicity is defined as any of the following treatment-emergent AEs occurring during the DLT Evaluation Period for Compound 1 as single-agent therapy: • Any treatment-emergent AE that in the opinion of the Cohort Review Committee is of potential clinical significance such that further dose escalation of Compound 1 would expose subjects to unacceptable risk • Non-hematologic toxicity: treatment-emergent […] AEs • The following hematologic toxicities that are treatment-emergent: • Grade 3 thrombocytopenia with clinically significant bleeding • Grade 4 thrombocytopenia • Grade 4 neutropenia of 4 days duration • Grade 3 neutropenia of any duration with fever (single temperature of ≥38.3° C. [101.0° F.] or sustained temperature of ≥38.0° C. [100.4° F.] for ≥1 hour) or documented infection • Grade 4 anemia • Inability to take 75% of the total planned Compound 1 dose for the DLT Evaluation Period because of a treatment-emergent AE leading to a dose reduction and/or interruption • Any AE experienced during the DLT Evaluation Period that results in permanent discontinuation of Compound 1 For subjects receiving Compound 1 as combination therapy with atezolizumab or avelumab, the above in addition to the following are defined as DLTs: • Any related Grade 3 AE which is unexpected in severity and/or duration compared with the known safety profiles of Compound 1 and atezolizumab or avelumab when used as single agents, and that cannot be managed by dose modification (reduction or interruption) and adequate supportive care, and requires permanent discontinuation of Compound 1 and/or atezolizumab or avelumab. • Any AE experienced during the DLT Evaluation Period that results in permanent discontinuation of Compound 1 and/or atezolizumab or avelumab Note: AEs are presumed attributable to study drug. […]

The nature of data set [3]: Liver microsomal stability assay. The class given is in vitro ADME, rat. As to conditions: liver microsomes. The protocol: as §1
Where [4] appears, read: human, fresh primary human hepatocytes, mRNA induction, read-out: half-maximal effective concentration (EC50).

Bounds are passed on as bounds.

By IC50 is commonly meant the concentration needed to halve the response being measured. As a reminder, the fraction unbound is the share of the substance not bound to proteins or other matrix. Read a high fraction unbound as weak binding.

Chain of MET (P08581 25-1390): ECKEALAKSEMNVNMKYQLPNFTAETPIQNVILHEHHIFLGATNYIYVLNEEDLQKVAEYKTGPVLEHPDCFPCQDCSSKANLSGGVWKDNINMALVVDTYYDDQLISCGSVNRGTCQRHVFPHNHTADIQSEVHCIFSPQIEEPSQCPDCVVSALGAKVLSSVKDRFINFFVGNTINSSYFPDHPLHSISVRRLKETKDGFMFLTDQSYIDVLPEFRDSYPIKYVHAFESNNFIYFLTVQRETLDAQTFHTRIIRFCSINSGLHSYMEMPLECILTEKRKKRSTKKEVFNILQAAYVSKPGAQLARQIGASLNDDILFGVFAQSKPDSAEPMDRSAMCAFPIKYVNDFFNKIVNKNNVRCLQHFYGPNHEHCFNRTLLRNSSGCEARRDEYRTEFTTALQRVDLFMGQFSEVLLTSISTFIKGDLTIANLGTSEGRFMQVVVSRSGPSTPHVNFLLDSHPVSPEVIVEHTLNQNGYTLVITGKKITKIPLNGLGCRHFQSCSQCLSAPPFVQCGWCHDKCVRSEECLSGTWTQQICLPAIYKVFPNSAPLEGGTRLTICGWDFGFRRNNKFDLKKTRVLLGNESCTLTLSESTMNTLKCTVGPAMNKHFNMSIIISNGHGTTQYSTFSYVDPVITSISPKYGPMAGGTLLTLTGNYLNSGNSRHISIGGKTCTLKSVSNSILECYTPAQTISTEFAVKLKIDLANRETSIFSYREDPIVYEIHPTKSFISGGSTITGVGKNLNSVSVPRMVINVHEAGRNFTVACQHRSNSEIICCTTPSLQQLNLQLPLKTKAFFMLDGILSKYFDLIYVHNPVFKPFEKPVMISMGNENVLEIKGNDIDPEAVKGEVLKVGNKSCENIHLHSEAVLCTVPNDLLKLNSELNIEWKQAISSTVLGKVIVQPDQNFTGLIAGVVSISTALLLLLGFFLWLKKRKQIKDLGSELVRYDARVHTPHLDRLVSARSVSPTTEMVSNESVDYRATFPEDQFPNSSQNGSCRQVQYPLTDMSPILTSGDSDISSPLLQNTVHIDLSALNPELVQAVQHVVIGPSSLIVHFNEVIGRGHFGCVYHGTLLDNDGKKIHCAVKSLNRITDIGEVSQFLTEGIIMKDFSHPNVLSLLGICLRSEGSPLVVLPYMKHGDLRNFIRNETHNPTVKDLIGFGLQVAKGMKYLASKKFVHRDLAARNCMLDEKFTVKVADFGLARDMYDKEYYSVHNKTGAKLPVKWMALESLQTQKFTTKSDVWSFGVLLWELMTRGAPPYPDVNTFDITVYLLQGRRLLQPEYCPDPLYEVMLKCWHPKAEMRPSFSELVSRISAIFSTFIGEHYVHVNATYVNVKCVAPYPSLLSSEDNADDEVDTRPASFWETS
Chain of AXL (P30530 26-894): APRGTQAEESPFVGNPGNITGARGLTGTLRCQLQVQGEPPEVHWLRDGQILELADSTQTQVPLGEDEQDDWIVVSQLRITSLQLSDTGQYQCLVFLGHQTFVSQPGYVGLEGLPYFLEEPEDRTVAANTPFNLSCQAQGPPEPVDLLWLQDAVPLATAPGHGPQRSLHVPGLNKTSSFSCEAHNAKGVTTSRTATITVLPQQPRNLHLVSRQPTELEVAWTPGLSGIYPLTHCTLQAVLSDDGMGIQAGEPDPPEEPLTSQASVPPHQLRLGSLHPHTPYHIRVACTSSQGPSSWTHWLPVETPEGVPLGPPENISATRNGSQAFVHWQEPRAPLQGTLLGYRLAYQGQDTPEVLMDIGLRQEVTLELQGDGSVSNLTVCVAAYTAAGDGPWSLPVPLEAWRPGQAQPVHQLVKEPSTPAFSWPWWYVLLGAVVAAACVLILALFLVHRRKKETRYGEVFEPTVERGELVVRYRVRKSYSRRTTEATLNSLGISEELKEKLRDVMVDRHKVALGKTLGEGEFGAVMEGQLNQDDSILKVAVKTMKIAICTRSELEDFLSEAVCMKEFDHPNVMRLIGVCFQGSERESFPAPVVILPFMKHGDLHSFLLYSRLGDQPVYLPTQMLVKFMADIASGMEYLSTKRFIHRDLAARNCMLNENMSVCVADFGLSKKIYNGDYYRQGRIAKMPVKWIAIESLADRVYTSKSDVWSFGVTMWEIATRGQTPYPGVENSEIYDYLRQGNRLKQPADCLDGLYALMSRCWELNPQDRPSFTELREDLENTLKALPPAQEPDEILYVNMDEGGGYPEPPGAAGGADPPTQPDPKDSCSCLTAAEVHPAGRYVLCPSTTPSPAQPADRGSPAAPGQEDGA
Chain of MER (Q12866 21-999): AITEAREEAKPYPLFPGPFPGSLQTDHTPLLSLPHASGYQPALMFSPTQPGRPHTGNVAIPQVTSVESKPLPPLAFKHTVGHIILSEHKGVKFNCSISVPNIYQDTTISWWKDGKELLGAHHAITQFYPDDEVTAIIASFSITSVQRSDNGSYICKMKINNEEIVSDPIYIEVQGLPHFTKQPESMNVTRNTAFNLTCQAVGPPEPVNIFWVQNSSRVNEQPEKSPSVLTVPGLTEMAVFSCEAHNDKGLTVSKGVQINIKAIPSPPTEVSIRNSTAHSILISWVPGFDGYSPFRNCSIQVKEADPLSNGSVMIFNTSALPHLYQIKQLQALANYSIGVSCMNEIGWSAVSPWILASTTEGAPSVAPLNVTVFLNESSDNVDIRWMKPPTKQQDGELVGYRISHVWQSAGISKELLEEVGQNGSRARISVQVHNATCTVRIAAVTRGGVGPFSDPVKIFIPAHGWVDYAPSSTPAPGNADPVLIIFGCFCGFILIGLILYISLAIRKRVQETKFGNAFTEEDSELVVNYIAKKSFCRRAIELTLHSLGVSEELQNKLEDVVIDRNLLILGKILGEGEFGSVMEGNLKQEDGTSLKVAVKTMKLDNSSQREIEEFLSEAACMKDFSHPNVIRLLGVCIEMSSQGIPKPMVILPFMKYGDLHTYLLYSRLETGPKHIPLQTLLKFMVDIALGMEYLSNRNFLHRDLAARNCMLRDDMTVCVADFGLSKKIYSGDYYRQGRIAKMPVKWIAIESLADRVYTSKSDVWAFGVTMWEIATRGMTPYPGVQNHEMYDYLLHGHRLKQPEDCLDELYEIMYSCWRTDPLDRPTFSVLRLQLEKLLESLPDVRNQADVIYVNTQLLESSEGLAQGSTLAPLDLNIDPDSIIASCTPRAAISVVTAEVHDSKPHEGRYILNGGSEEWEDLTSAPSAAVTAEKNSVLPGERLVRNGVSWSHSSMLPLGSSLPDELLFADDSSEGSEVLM
Chain of VEGFR2 (P35968 20-1356): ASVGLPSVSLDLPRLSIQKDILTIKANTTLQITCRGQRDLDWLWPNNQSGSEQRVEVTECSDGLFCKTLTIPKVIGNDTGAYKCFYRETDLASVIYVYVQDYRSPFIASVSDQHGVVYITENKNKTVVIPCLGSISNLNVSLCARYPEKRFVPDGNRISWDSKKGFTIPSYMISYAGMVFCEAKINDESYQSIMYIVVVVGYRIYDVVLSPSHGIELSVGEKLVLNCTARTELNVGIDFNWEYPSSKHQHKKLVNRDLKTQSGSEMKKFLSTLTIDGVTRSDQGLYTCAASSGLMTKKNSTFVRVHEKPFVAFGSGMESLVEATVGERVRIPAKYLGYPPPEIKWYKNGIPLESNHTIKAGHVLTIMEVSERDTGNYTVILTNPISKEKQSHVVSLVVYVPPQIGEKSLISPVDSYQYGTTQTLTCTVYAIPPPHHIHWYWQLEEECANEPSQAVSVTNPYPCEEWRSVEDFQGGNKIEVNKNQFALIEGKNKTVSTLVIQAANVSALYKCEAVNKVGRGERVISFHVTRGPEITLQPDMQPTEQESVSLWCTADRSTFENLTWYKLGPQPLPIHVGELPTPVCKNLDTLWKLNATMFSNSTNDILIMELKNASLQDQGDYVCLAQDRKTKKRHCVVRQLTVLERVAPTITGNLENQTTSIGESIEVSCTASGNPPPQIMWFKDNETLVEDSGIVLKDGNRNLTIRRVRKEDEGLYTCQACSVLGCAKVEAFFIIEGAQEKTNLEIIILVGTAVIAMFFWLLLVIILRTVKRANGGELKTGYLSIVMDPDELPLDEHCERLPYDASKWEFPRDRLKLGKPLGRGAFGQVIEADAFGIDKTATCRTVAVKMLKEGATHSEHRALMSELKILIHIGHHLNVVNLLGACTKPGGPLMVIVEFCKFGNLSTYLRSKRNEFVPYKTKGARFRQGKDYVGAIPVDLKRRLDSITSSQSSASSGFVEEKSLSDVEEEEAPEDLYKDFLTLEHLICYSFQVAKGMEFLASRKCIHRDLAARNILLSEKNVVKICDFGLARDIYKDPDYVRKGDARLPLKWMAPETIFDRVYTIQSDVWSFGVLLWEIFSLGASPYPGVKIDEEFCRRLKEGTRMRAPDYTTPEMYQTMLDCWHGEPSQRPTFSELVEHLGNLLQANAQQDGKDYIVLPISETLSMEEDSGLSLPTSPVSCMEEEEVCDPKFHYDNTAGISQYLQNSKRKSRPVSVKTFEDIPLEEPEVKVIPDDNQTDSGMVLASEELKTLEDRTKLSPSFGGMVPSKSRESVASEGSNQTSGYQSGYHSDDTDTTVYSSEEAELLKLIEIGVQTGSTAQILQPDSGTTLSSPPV

For `CNC(=O)c1cc2c(Oc3ccc(NC(=O)C4(C(=O)Nc5ccc(F)cc5)CC4)cc3)ccnc2cc1OC` [Compound 1, 1-N′-(4-Fluorophenvl)-1-N-[4-[7-methoxy-6-(methylcarbamovl)quinolin-4-yl]oxyphenyl]cyclopropane-1,1-dicarboxamide], the CLint in data set [1] is reported as 0.601 mL/min/g liver; in data set [3] it was 0.563 mL/min/g liver. Besides, the EC50 in the data set on CYP3A4 (setting [4]) was 2980 nM; with CYP2C8 (setting [4]) it was 2010 nM; in the data set with CYP1A2 (setting [4]), 930 nM. For the same molecule, the “maximal induction effect (Emax)” value in the data set with CYP3A4 (mRNA, 0.1-100 μM) is given as 24 fold; in the data set on CYP2C8 (mRNA, 0.1-100 μM), 7 fold; in the data set on CYP1A2 (mRNA, 0.1-100 μM), 5 fold. Moreover, the half-inhibitory concentration (IC50) on MET worked out at 3 nM; on VEGFR2, 15 nM; on MER, 0.6 nM; at AXL it was 5.8 nM. For the same molecule, the protein bound in data set [2] (10 μM) worked out at 97.5%. The molecule further displayed a fraction unbound in data set [2] (human, plasma, 0.2 and 1 μM) of less than 0.01. Moreover, in the data set with advanced solid tumors (as of 14 Dec. 2020), the “subjects with treatment-related Grade 3 events” value is listed as “five subjects”. Moreover, in the data set on advanced solid tumors (as of 14 Dec. 2020), the “treatment-related Grade 4 or Grade 5 events” value is listed as “no treatment-related Grade 4 or Grade 5 events”. Besides, in the data set with advanced solid tumors (single agent and in combination with ICI therapy), the tolerability result is on record as “well tolerated”. The preliminary clinical activity result in the data set with advanced solid tumors (single agent therapy and atezolizumab combination therapy cohorts) is “prolonged disease stabilization and tumor regressions”. For the same molecule, in the data set on advanced solid tumors (single agent, one subject at 140 mg po qd, Grade 3 uncontrolled hypertension), the “DLTs observed among completed dose levels” value is on record as “one DLT”.
